Data: patent US12319655B2, “RAF kinase inhibitors and methods of use thereof” (Deciphera Pharmaceuticals, LLC, priority 2021, dated 2025)

Assays:
[1] = biological target: C-Raf kinase (SEQ. ID NO: 3) (Homo sapiens (Human), UniProt P04049, Y340D/Y341D); assay: Biochemical Assay for C-Raf (1); conditions: Table J, assay version (1); read-out: CRAF (1) IC50
Outline: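 Coupled pyruvate kinase/LDH assay tracking NADH oxidation at 340 nm, with 0.43 nM C-Raf, 30.1 nM MEK and 1 mM ATP in pH 7.5 Tris buffer (15 mM MgCl2, 1% DMSO final). Read continuously for 6 h at 30 °C, rate taken from the 4–5 h window. IC50 from four-parameter fit of percent inhibition.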

[2] = biological target: B-Raf kinase (SEQ. ID NO: 2) (Homo sapiens (Human), UniProt P15056); assay: Biochemical Assay for B-Raf (1); conditions: Table J, assay version (1); read-out: BRAF (1) IC50
Sequence of B-Raf kinase (SEQ. ID NO: 2) (P15056 416-766): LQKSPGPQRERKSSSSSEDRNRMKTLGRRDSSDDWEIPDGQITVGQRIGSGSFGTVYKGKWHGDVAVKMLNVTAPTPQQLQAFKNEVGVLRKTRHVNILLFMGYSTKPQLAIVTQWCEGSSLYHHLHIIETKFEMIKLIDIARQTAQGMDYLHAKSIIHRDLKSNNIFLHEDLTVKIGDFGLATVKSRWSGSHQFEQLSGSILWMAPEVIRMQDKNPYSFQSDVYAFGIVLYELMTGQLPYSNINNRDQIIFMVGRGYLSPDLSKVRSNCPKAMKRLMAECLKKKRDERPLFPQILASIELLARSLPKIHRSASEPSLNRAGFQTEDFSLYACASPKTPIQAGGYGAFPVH
Outline: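 Continuous PK/LDH-coupled NADH oxidation assay, A340 read for 6 h at 30° C., with 0.13 nM B-Raf, 30.1 nM MEK substrate and 1 mM ATP in Tris pH 7.5, MgCl2, DTT, detergents, 1% DMSO. Rate taken from 4–5 h window; percent inhibition vs no-compound and known-inhibitor controls; four-parameter fit gives IC50.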

A375 cells = assay: A375 Cell Proliferation Assay (1); format: cell-based; conditions: Homo sapiens, A-375
Outline: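 Resazurin fluorescence (excitation 540 nm, emission 600 nm, after a further 5-6 h) gave IC50s from triplicate compound dilution series.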

WM3928 cells = assay: WM3928 Cell Proliferation Assay (1); format: cell-based
Outline: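 IC50 was derived from resazurin fluorescence (ex 540, em 600 nm) after a 6–7 h dye incubation. Before that, cells had 67–72 h of compound exposure at 37 °C, 5% CO2.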

Sequence of C-Raf kinase (SEQ. ID NO: 3) (P04049 307-648 Y340D/Y341D): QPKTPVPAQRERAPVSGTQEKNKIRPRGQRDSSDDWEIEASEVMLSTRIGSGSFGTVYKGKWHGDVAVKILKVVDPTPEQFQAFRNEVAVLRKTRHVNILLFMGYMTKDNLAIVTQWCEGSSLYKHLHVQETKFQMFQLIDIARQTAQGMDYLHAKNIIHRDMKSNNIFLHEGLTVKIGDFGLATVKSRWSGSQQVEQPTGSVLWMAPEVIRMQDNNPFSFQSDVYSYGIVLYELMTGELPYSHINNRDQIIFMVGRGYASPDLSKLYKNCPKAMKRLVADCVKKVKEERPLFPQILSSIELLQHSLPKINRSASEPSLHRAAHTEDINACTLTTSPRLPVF

Row | IC50 [1] [nM] | IC50 [2] [nM] | IC50 (A375 cells) [nM] | Compound | IC50 (WM3928 cells) [nM]
1 | ≤ 100 | ≤ 100 | 100 to 500 | CCOc1cc(-c2cc(NC(=O)c3ccnc(C(F)(F)F)c3)ccc2C)cc(-c2ccnc(NC(=O)C3CC3)c2)n1 [Example 12] | –
2 | ≤ 100 | ≤ 100 | ≤ 100 | CC(=O)Nc1cc(-c2cc(-c3cc(NC(=O)c4ccnc(C(F)(F)F)c4)ccc3C)cc(C3CC3)n2)ccn1 [Example 14] | –
3 | ≤ 100 | ≤ 100 | 1000 to 10000 | Cc1ccc(NC(=O)c2ccnc(C(F)(F)F)c2)cc1-c1ccnc(-c2ccnc(N)c2)c1 [Example 16, N-(3-(2′-amino-[2,4′-bipyridin]-4-yl)-4-methylphenyl)-2-(trifluoromethyl)isonicotinamide] | 1000 to 10000
4 | ≤ 100 | ≤ 100 | 1000 to 10000 | Cc1ccc(NC(=O)c2ccnc(C(F)(F)F)c2)cc1-c1ccnc(-c2ccnc3c2CC(=O)N3)c1 [Example 18] | –
5 | ≤ 100 | ≤ 100 | ≤ 100 | CC(=O)Nc1cc(-c2cc(-c3cc(NC(=O)c4ccnc(C(C)(C)C#N)c4)ccc3C)ccn2)ccn1 [Example 19] | –
6 | ≤ 100 | ≤ 100 | ≤ 100 | Cc1ccc(NC(=O)c2cc(CN(C)C)cc(C(F)(F)F)c2)cc1-c1cncc(-c2ccnc(NC(=O)C3CC3)c2)n1 [Example 185] | ≤ 100
7 | ≤ 100 | ≤ 100 | ≤ 100 | Cc1ccc(NC(=O)c2ccnc(C3(C#N)CC3)c2)cc1-c1nccc(-c2ccnc(NC(=O)C3CC3)c2)n1 [Example 187] | ≤ 100
8 | ≤ 100 | 100 to 500 | ≤ 100 | CNC(=O)c1cc(-c2cccc(-c3cc(NC(=O)c4ccnc(C(C)(C)C#N)c4)cnc3C)c2)ccn1 [Example 192] | ≤ 100
9 | 100 to 500 | 100 to 500 | ≤ 100 | CNC(=O)c1cc(-c2nc(-c3cc(NC(=O)c4ccnc(C(C)(C)C#N)c4)ccc3C)cc(C3CC3)n2)ccn1 [Example 196] | 100 to 500
10 | 100 to 500 | 500 to 1000 | ≤ 100 | Cc1ccc(NC(=O)c2ccnc(C(C)(C)C#N)c2)cc1-c1cccc(-c2cc(NC(=O)C3(C)CC3)ncn2)c1 [Example 197] | ≤ 100
11 | ≤ 100 | 100 to 500 | ≤ 100 | Cc1ccc(NC(=O)c2ccnc(C(C)(C)C#N)c2)cc1-c1cccc(-c2cc(NC(=O)C3(F)CC3)ncn2)c1 [Example 200] | ≤ 100
12 | 100 to 500 | 500 to 1000 | 100 to 500 | CNC(=O)c1cc(-c2cccc(-c3cc(NC(=O)c4ccnc(C(C)(C)C#N)c4)cnc3C)c2)cnn1 [Example 201] | 100 to 500
13 | ≤ 100 | ≤ 100 | ≤ 100 | Cc1ccc(NC(=O)c2ccnc(C3(C#N)CC3)c2)cc1-c1cccc(-c2cc(NC(=O)C3CC3)ncn2)c1 [Example 203] | ≤ 100
14 | 100 to 500 | 100 to 500 | 100 to 500 | CNC(=O)c1cc(-c2cccc(-c3cc(NC(=O)c4ccnc(C(C)(C)C#N)c4)cnc3C)c2)ncn1 [Example 204] | 100 to 500
15 | ≤ 100 | 100 to 500 | 1000 to 10000 | Cc1ncc(NC(=O)c2ccnc(C(C)(C)C#N)c2)cc1-c1cccc(-c2cc(N)ncn2)c1 [Example 207] | –
16 | ≤ 100 | ≤ 100 | ≤ 100 | Cc1cc(-c2cc(NC(=O)C3CC3)ncn2)cc(-c2cc(NC(=O)c3ccnc(C(C)(C)C#N)c3)ccc2C)c1 [Example 212] | –
17 | ≤ 100 | ≤ 100 | 500 to 1000 | CNC(=O)c1cc(-c2cc(-c3cc(NC(=O)c4cnnc(C5CC5)c4)ccc3C)ccn2)ccn1 [Example 215] | 500 to 1000
18 | 100 to 500 | 100 to 500 | ≤ 100 | Cc1ccc(NC(=O)c2ccnc(C(C)(C)C#N)c2)cc1-c1cc(-c2cc(NC(=O)C3CC3)ncn2)cc(C2CC2)c1 [Example 216] | ≤ 100
19 | 100 to 500 | 100 to 500 | 1000 to 10000 | COC(C)(C)C(=O)Nc1cc(-c2cc(-c3cc(NC(=O)c4ccnc(C(C)(C)C#N)c4)ccc3C)ccn2)ccn1 [Example 237] | –
20 | ≤ 100 | 100 to 500 | 100 to 500 | CNC(=O)c1cc(-c2ccnc(-c3cc(NC(=O)c4ccnc(C(C)(C)F)c4)ccc3C)n2)ccn1 [Example 246] | –
21 | 100 to 500 | 1000 to 10000 | 1000 to 10000 | CNC(=O)c1cc(-c2cc(-c3cc(NC(=O)c4ccnc(C(C)(C)C#N)c4)ccc3C#N)ccn2)ccn1 [Example 247] | –
22 | 100 to 500 | 100 to 500 | 100 to 500 | CNC(=O)c1cc(-c2ccnc(-c3cc(NC(=O)c4ccnc(C(C)(C)OC)c4)ccc3C)n2)ccn1 [Example 268] | –
23 | ≤ 100 | ≤ 100 | ≤ 100 | Cc1ncc(NC(=O)c2ccnc(C(C)C)c2)cc1-c1cccc(-c2ccnc(NC(=O)C3CC3)c2)n1 [Example 269] | –

Continued, molecule first:

Row | Compound | IC50 [1] [nM] | IC50 [2] [nM] | IC50 (A375 cells) [nM] | IC50 (WM3928 cells) [nM]
24 | Cc1ccc(NC(=O)c2ccnc(C(F)(F)F)c2)cc1-c1cc(-c2ccnc(NC(=O)C3CC3)c2)n(C)c(=O)c1 [Example 13] | ≤ 100 | ≤ 100 | 1000 to 10000 | –
25 | CC(=O)Nc1cc(-c2cc(-c3cc(NC(=O)c4ccnc(C(F)(F)F)c4)ccc3C)cc(N3CCOCC3)n2)ccn1 [Example 15] | ≤ 100 | ≤ 100 | ≤ 100 | –
26 | Cc1ccc(NC(=O)c2ccnc(C(F)(F)F)c2)cc1-c1ccnc(-c2ccnc(NC(=O)CN(C)C)c2)c1 [Example 17] | ≤ 100 | ≤ 100 | 100 to 500 | –
27 | Cc1cc(-c2cc(NC(=O)c3ccnc(C(F)(F)F)c3)ccc2C)cc(-c2ccnc3c2CC(=O)N3)n1 [Example 20] | ≤ 100 | ≤ 100 | 1000 to 10000 | –
28 | Cc1ccc(NC(=O)c2ccnc(C(C)(C)F)c2)cc1-c1ccnc(-c2ccnc(NC(=O)C3CC3)c2)n1 [Example 186] | ≤ 100 | ≤ 100 | ≤ 100 | ≤ 100
29 | Cc1ccc(NC(=O)c2ccnc(C(F)F)c2)cc1-c1ccnc(-c2ccnc(NC(=O)C3CC3)c2)n1 [Example 189] | ≤ 100 | ≤ 100 | 100 to 500 | ≤ 100
30 | COC(C)(C)c1cc(C(=O)Nc2ccc(C)c(-c3ccnc(-c4ccnc(NC(=O)C5CC5)c4)n3)c2)ccn1 [Example 190] | ≤ 100 | ≤ 100 | ≤ 100 | ≤ 100
31 | CNC(=O)c1cc(-c2cccc(-c3cc(NC(=O)c4ccnc(C(C)(C)C#N)c4)ccc3C)c2)cnn1 [Example 191] | ≤ 100 | 100 to 500 | ≤ 100 | ≤ 100
32 | Cc1ncc(NC(=O)c2ccnc(C(C)(C)C#N)c2)cc1-c1ccnc(-c2ccnc(NC(=O)C3CC3)c2)n1 [Example 193] | ≤ 100 | ≤ 100 | ≤ 100 | ≤ 100
33 | CNC(=O)c1cc(-c2nccc(-c3cc(NC(=O)c4ccnc(C(C)(C)C#N)c4)cnc3C)n2)ccn1 [Example 194] | 100 to 500 | 500 to 1000 | 500 to 1000 | 100 to 500
34 | CNC(=O)c1cc(-c2ccnc(-c3cc(NC(=O)c4ccnc(C(C)(C)C#N)c4)cnc3C)n2)ccn1 [Example 199] | 100 to 500 | 500 to 1000 | 1000 to 10000 | 1000 to 10000
35 | Cc1ccc(NC(=O)c2cc(CN(C)C)cc(C(F)(F)F)c2)cc1-c1cccc(-c2cc(NC(=O)C3CC3)ncn2)c1 [Example 202] | ≤ 100 | ≤ 100 | ≤ 100 | ≤ 100
36 | CNC(=O)c1cc(-c2cc(-c3cc(NC(=O)c4ccnc(C(C)(C)C#N)c4)ccc3F)ccn2)ccn1 [Example 205] | ≤ 100 | 100 to 500 | 100 to 500 | 100 to 500
37 | Cc1ncc(NC(=O)c2ccnc(C(C)(C)C#N)c2)cc1-c1cccc(-c2cc(NC(=O)C(C)(C)C)ncn2)c1 [Example 213] | 500 to 1000 | 1000 to 10000 | – | 100 to 500
38 | CNC(=O)c1cc(-c2cc(-c3cc(NC(=O)c4ccnc(C(C)(C)F)c4)ccc3C)ccn2)ccn1 [Example 214] | ≤ 100 | 100 to 500 | ≤ 100 | ≤ 100
39 | CC(C)(C#N)c1cc(C(=O)Nc2ccc(C#N)c(-c3cccc(-c4cc(NC(=O)C5CC5)ncn4)c3)c2)ccn1 [Example 240] | ≤ 100 | 100 to 500 | 100 to 500 | –
40 | CNC(=O)c1cc(-c2cc(-c3cc(NC(=O)c4ccnc(C(C)(C)C#N)c4)ccc3F)cc(C)n2)ccn1 [Example 259] | ≤ 100 | 100 to 500 | 500 to 1000 | –
41 | CCNC(=O)c1cc(-c2cc(-c3cc(NC(=O)c4ccnc(C(C)(C)C#N)c4)ccc3C)ccn2)ccn1 [Example 266] | ≤ 100 | 100 to 500 | 100 to 500 | –
42 | Cc1cc(F)c(NC(=O)c2ccnc(C(C)(C)F)c2)cc1-c1cncc(-c2ccnc(NC(=O)C3CC3)c2)n1 [Example 276] | ≤ 100 | ≤ 100 | ≤ 100 | –
